Experimental data taken from US20250250287A1, “HETEROCYCLIC COMPOUNDS, COMPOSITIONS THEREOF, AND METHODS OF TREATMENT THEREWITH” (BeiGene Switzerland GmbH, priority 2022, published 2025).
pIC50: −log10 of the molar value.

How the values were obtained:
[1] = test system: pERK1/2(THR202/TYR204) level in SW620 cell line (KRAS G12V); test: KRAS G12V pERK assay (HTRF) in SW620 cell line; format: cell-based; settings: Homo sapiens, SW-620, 2 h, SW620 cells, 2 hrs compound treatment
Method: (§1) SW620 cell line was used in this study. Cells were maintained in RPMI 1640 supplemented with 10% fetal bovine serum (Thermo Fisher), 50 units/mL penicillin and streptomycin (Thermo Fisher) and kept at 37° C. in a humidified atmosphere of 5% CO2 in air. Cells were reinstated from frozen stocks that were laid down within 30 passages from the original cells purchased. 40000 cells per well were seeded into a 96-well plate and incubated overnight. Cells were treated with a 10-point dilution series. The final compound concentration is from 0 to 10 μM. After 2 hrs compound treatment, cells were lysed, and the pERK1/2(THR202/TYR204) level in the cell lysates was detected by HTRF kit (Cisbio). In brief, a total of 16 μL of cell lysate from each well of a 96-well plate was transferred to a 384-well white assay plate. Lysate from each well was incubated with 2 μL of Eu3+-cryptate (donor) labeled anti-phospho-ERK1/2 and 2 μL of D2 (acceptor) labeled anti-phospho-ERK1/2 antibodies (Cisbio) overnight in dark at room temperature. When donor and acceptor are in close proximity, excitation of the donor with laser triggers a Fluorescence Resonance Energy Transfer (FRET) towards the acceptor, which in turn fluoresces at 655 nm wavelength. FRET signals were measured using a PHERAstar FSX reader (BMG Labtech). IC50 determination was performed by fitting the curve of percent inhibition versus the log of the inhibitor concentration using Dotmatics.

[2] = test system: pERK1/2(THR202/TYR204) level in AsPC-1 cell line (KRAS G12D); test: KRAS G12D pERK assay (HTRF) in AsPC-1 cell line; format: cell-based; settings: Homo sapiens, ASPC1; AsPC-1 cells, 2 h compound treatment
Method: as §1, with “AsPC-1” for “SW620”, “RPMI-1640” for “RPMI 1640”, “30000” for “40000”, “h” for “hrs”, “IC50 determination was performed by fitting the curve of percent inhibition versus the log of the inhibitor concentration using Dotmatics.” left out

pIC50 [1] | pIC50 [2] | SMILES
8.23 | 8.20 | C#Cc1c(F)ccc2cc(O)cc(-c3nc4c5c(nc(OC[C@@]67CCCN6C[C@H](F)C7)nc5c3F)N3CCCC[C@H]3CO4)c12 [Example 16, 5-ethynyl-6-fluoro-4-((S)-1-fluoro-11-(((2R,7aS)-2-fluorotetrahydro-1H-pyrrolizin-7a(5H)-yl)methoxy)-5,5a,6,7,8,9-hexahydro-4-oxa-3,9a,10,12-tetraazabenzo[4,5]cyclohepta[1,2,3-d]naphthalen-2-yl)naphthalen-2-ol]
8.03 |  | C#Cc1c(F)ccc2cc(O)cc(-c3nc4c5c(nc(OC[C@@]67CCCN6C[C@H](F)C7)nc5c3F)N3CCCCCC3CO4)c12 (stereo partly drawn) [Example 26, 5-ethynyl-6-fluoro-4-(1-fluoro-12-(((2R,7aS)-2-fluorotetrahydro-1H-pyrrolizin-7a(5H)-yl)methoxy)-5a,6,7,8,9,10-hexahydro-5H-4-oxa-3,10a,11,13-tetraazanaphtho[1,8-ab]heptalen-2-yl)naphthalen-2-ol]
7.51 |  | N#Cc1c(N)sc2c(F)ccc(-c3c(Cl)c4c5c(nc(OC[C@@]67CCCN6C[C@H](F)C7)nc5c3F)N3CCC[C@H]3CO4)c12 [Example 27, 2-amino-4-((S)-10-chloro-8-fluoro-6-(((2R,7aS)-2-fluorotetrahydro-1H-pyrrolizin-7a(5H)-yl)methoxy)-2,3,12,12a-tetrahydro-1H-pyrrolo[2′,1′:3,4][1,4]oxazepino[5,6,7-de]quinazolin-9-yl)-7-fluorobenzo[b]thiophene-3-carbonitrile]
7.13 |  | C[C@@H]1C[C@H]2COc3c(Cl)c(-c4ccc(F)c5sc(N)c(C#N)c45)c(F)c4nc(OC[C@@]56CCCN5C[C@H](F)C6)nc(c34)N2C1 [Example 28, 2-amino-4-((2R,12aS)-10-chloro-8-fluoro-6-(((2R,7aS)-2-fluorotetrahydro-1H-pyrrolizin-7a(5H)-yl)methoxy)-2-methyl-2,3,12,12a-tetrahydro-1H-pyrrolo[2′,1′:3,4][1,4]oxazepino[5,6,7-de]quinazolin-9-yl)-7-fluorobenzo[b]thiophene-3-carbonitrile]
7.04 |  | N#Cc1c(N)sc2c(F)ccc(-c3c(Cl)c4c5c(nc(OC[C@@]67CCCN6C[C@H](F)C7)nc5c3F)N3C[C@H](O)C[C@H]3CO4)c12 [Example 29, 2-amino-4-((2R,12aS)-10-chloro-8-fluoro-6-(((2R,7aS)-2-fluorotetrahydro-1H-pyrrolizin-7a(5H)-yl)methoxy)-2-hydroxy-2,3,12,12a-tetrahydro-1H-pyrrolo[2′,1′:3,4][1,4]oxazepino[5,6,7-de]quinazolin-9-yl)-7-fluorobenzo[b]thiophene-3-carbonitrile]
7.29 |  | N#Cc1c(N)sc2c(F)ccc(-c3c(Cl)c4c5c(nc(OC[C@@]67CCCN6C[C@H](F)C7)nc5c3F)N3CCC(C#N)C[C@H]3CO4)c12 (stereo partly drawn) [Example 30, (8aS)-5-(2-amino-3-cyano-7-fluorobenzo[b]thiophen-4-yl)-6-chloro-4-fluoro-2-(((2R,7aS)-2-fluorotetrahydro-1H-pyrrolizin-7a(5H)-yl)methoxy)-8,8a,9,10,11,12-hexahydropyrido[2′,1′:3,4][1,4]oxazepino[5,6,7-de]quinazoline-10-carbonitrile]
7.25 |  | N#Cc1c(N)sc2c(F)ccc(-c3c(Cl)c4c5c(nc(OC[C@@]67CCCN6C[C@H](F)C7)nc5c3F)N3CC[C@@H](O)C[C@H]3CO4)c12 [Example 31, 2-Amino-4-((8aS,10R)-6-chloro-4-fluoro-2-(((2R,7aS)-2-fluorotetrahydro-1H-pyrrolizin-7a(5H)-yl)methoxy)-10-hydroxy-8,8a,9,10,11,12-hexahydropyrido[2′,1′:3,4][1,4]oxazepino[5,6,7-de]quinazolin-5-yl)-7-fluorobenzo[b]thiophene-3-carbonitrile]
7.37 |  | C[C@@H]1Oc2nc(-c3cc(N)cc(Cl)c3C(F)(F)F)c(F)c3nc(OC[C@@]45CCCN4C[C@H](F)C5)nc(c23)N2CCCC[C@@H]12 [Example 33, 3-chloro-5-((5S,5aS)-1-fluoro-11-(((2R,7aS)-2-fluorotetrahydro-1H-pyrrolizin-7a(5H)-yl)methoxy)-5-methyl-5,5a,6,7,8,9-hexahydro-4-oxa-3,9a,10,12-tetraazabenzo[4,5]cyclohepta[1,2,3-de]naphthalen-2-yl)-4-(trifluoromethyl)aniline]
8.00 |  | C#Cc1c(F)ccc2cc(O)cc(-c3nc4c5c(nc(OC[C@@]67CCCN6C[C@H](F)C7)nc5c3F)N3CCCC[C@H]3[C@H](C)O4)c12 [Example 34, 5-ethynyl-6-fluoro-4-((5S,5aS)-1-fluoro-11-(((2R,7aS)-2-fluorotetrahydro-1H-pyrrolizin-7a(5H)-yl)methoxy)-5-methyl-5,5a,6,7,8,9-hexahydro-4-oxa-3,9a,10,12-tetraazabenzo[4,5]cyclohepta[1,2,3-de]naphthalen-2-yl)naphthalen-2-ol]
7.82 |  | C#Cc1c(F)ccc2cc(O)cc(-c3nc4c5c(nc(OC[C@@]67CCCN6C[C@H](F)C7)nc5c3F)N3C[C@@H](O)CC[C@H]3CO4)c12 [Example 35, (5aS,8S)-2-(8-ethynyl-7-fluoro-3-hydroxynaphthalen-1-yl)-1-fluoro-11-(((2R,7aS)-2-fluorotetrahydro-1H-pyrrolizin-7a(5H)-yl)methoxy)-5,5a,6,7,8,9-hexahydro-4-oxa-3,9a,10,12-tetraazabenzo[4,5]cyclohepta[1,2,3-de]naphthalen-8-ol]

SMILES | pIC50 [1] | pIC50 [2]
C#Cc1c(F)ccc2cc(O)cc(-c3nc4c5c(nc(OC[C@@]67CCCN6C[C@H](F)C7)nc5c3F)N3[C@H](CO4)C[C@@H]4C[C@@H]43)c12 [Example 32, 5-ethynyl-6-fluoro-4-((5aS,6aS,7aS)-1-fluoro-9-(((2R,7aS)-2-fluorotetrahydro-1H-pyrrolizin-7a(5H)-yl)methoxy)-5,5a,6,6a,7,7a-hexahydro-4-oxa-3,7b,8,10-tetraazacyclopropa[a]naphtho[1,8-gh]azulen-2-yl)naphthalen-2-ol] | 7.59 | 
